Assays:
Jurkat lymphocytes [1] = test: Antibody uptake assay and uptake kinetics (flow cytometry); type: cell-based, human; settings: for efficiency as mediator of ligand (IgG) uptake: anti-DNP/PrA-AF488, flow cytometry
Procedure: Antibody uptake assays (FIG. 8, Panels A-B, FIG. 10, and FIG. 11). Synthetic receptors 2-9 in DMSO were diluted in RPMI media (0.5 mL, final DMSO concentration=1%) containing Jurkat lymphocytes (1×10^6). These receptor-treated cells were incubated at 37° C. for 1 h, washed with RPMI media (2×0.5 mL) to remove unincorporated receptors/DMSO, and resuspended in fresh media (89 μL). To these cells was added a pre-equilibrated complex (preincubated at 23° C. for 1 h) of anti-DNP IgG (9.6 μg) and the PrA-Alexa Fluor conjugate (PrA-AF488 or PrA-AF633, 3 μg) in phosphate-buffered saline (11 μL, pH 7.4, total volume=100 μL). Cells were typically maintained at 37° C. for 4 h to promote synthetic receptor-mediated endocytosis. Prior to analysis, treated cells were washed with media (0.5 mL), washed again with media containing 6-(2,4-dinitrophenyl)aminohexanoic acid (100 μM, 3×0.5 mL×20 min, 1% DMSO) to compete away any non-internalized protein, washed again with media (0.5 mL), and resuspended in media (0.6 mL) for analysis by epifluorescence microscopy, confocal microscopy, or flow cytometry.
Antibody uptake kinetics (FIG. 8, Panel C). To determine the relative uptake rates shown on the left of FIG. 8C, Jurkat lymphocytes were subjected to the antibody uptake assay (cells were treated with receptors 2-5 at 10 μM for 1 h followed by addition of a pre-equilibrated complex (preincubated at 23° C. for 1 h) of anti-DNP-IgG/PrA-AF488 for 15 min to 4 h) and internalized cellular fluorescence was quantified by flow cytometry. […] Observed rates of ligand uptake (kobs) were calculated with a Michaelis-Menten kinetic model assuming saturating concentrations of substrate (kobs=(Ft−F0)/t). t=time (in minutes), Ft=fluorescence at the specified time, and F0=fluorescence at time=0 min. The slope of plots of fluorescence vs. time provided kobs values that were divided by the basal rate of endocytosis (no receptor) to determine the relative rates of uptake.
These cells were washed with ice-cold media (500 μL) and maintained at 4° C. A pre-equilibrated (1 h at 23° C.) ice-cold solution of RPMI media (100 μL) containing anti-DNP-IgG (7.2 μg) and PrA-AF488 (2 μg) was added. After 1 h at 4° C., the cells were washed with ice-cold RPMI media (2×500 μL). Cells were equilibrated at 37° C. for 20 min prior to fluorescence measurements to dissociate excess surface-bound antibody. After equilibration, uptake experiments were initiated (this was defined as t=0 min). Cells were subsequently incubated at 37° C. for fixed periods of time (0 to 3 h), cooled to 4° C. on ice, and washed with ice-cold RPMI media containing 6-(2,4-dinitrophenyl)aminohexanoic acid (100 μM, 1% DMSO, 3×0.5 mL×10 min at 4° C. followed by 2×0.5 mL×20 min at 23° C.) to remove non-internalized IgG. Intracellular fluorescence was quantified by flow cytometry. Cell surface fluorescence was calculated by subtracting this intracellular fluorescence from cellular fluorescence measured at t=0 min (after the initial equilibration at 37° C. for 20 min; the competition with 6-(2,4-dinitrophenyl)aminohexanoic acid was omitted to analyze this cellular fluorescence).
Synthetic receptors were evaluated as mediators of cellular uptake of protein ligands in living Jurkat lymphocytes, a human T cell line. Confocal laser scanning microscopy and flow cytometry were employed to analyze cells treated with compounds 2-9 for 1 hour followed by addition of anti-DNP IgG complexed with fluorescent conjugates of the IgG-binding protein A (PrA) from S. aureus. […] (FIG. 9, Panel A). This intracellular red fluorescence was 59-fold lower in the absence of receptor 6 consistent with a synthetic receptor-mediated uptake mechanism. The IgG-loaded intracellular compartments were identified as late endosomes and lysosomes by co-localization studies in cells transfected with EGFP-lgp120, a fluorescent protein marker of these compartments.

[2] = molecular target: rabbit polyclonal anti-DNP IgG; test: Fluorescence polarization binding of DNP and NBD derivatives to anti-DNP IgG; settings: apparent affinity, PBS pH 7.4, read-out: dissociation constants (Kd)
Jurkat lymphocytes [3] = test: Efflux kinetics from endosomes to plasma membrane by back exchange; type: cell-based, human
Procedure: FIG. 11. Quantification of efflux kinetics of receptor 10 from endosomes to the plasma membrane of Jurkat lymphocytes by back exchange. Cells treated with 10 (1 μM, 1 hour) were cooled to 4° C. and cell surface fluorophores removed (>90%) by repeated washing with ice-cold back exchange media containing BSA (1%) and methyl-β-cyclodextrin (2 mM). Cells were resuspended in back exchange media at 37° C. to resume recycling, cellular fluorescence was quantified by flow cytometry, and loss of fluorescence was evaluated with a one-site exponential decay model.
Quantification of efflux kinetics of receptor 10 from endosomes to the plasma membrane by back exchange (FIG. 11). The efficiency of removal of 10 from the plasma membrane was examined prior to analysis of efflux kinetics. Jurkat lymphocytes (3×10^6) were suspended in ice-cold serum free recycling media (1.5 mL) and maintained on ice (2 min) to block plasma membrane recycling. These cells were resuspended in ice-cold serum free recycling media (1.5 mL, 1% DMSO) containing 10 (1 μM) and maintained on ice (10 min) to allow association of 10 with the plasma membrane. Receptor-treated cells were washed with ice-cold serum free recycling media (2×0.5 mL), resuspended in ice-cold serum free recycling media (1.5 mL), and analyzed by flow cytometry.
These cells were washed with serum free recycling media (2×1 mL) to remove unincorporated receptor (10). These receptor-treated cells were cooled on ice (5 min) to halt recycling and washed with ice-cold back-exchange media (6×1.5 mL×10 min) to selectively remove 10 from the cell surface without affecting the population of 10 in intracellular endosomes. These cells were resuspended in warm back exchange media (37° C., 1.5 mL) to initiate plasma membrane recycling and immediately analyzed by flow cytometry (defined as t=0 min). Cells were isolated by centrifugation, resuspended in warm back exchange media (1.5 mL, 37° C.), incubated at 37° C., and analyzed by flow cytometry as a function of time.
To quantify the rate of plasma membrane recycling, oregon green-derived receptor 10 was employed. Unlike the more strongly cell-associated DNP and NBD-based receptors, the compound 10 binds proteins in cell culture media and can be rapidly and efficiently depleted from cell surfaces by washing cells with “back exchange” media containing bovine serum albumin (BSA, 1%) and methyl-beta-cyclodextrin (Me-beta-CD, 2 mM). This concentration of Me-beta-CD is known to affect neither endocytosis nor plasma membrane recycling. The oregon green-fluorophore of 10 was also chosen for these studies because unlike structurally similar carboxydifluorescein the fluorescence of oregon green is not appreciably quenched in acidic environment of endosomal compartments. […]

Jurkat lymphocytes [4] = test: Cellular stability (cell surface half-life) of receptor; type: cell-based, human; settings: 10 μM receptor 1 h, detected with anti-DNP/PrA-AF488
Procedure: Quantification of the cellular stability of receptor 2 (FIG. 9, Panel C). Jurkat lymphocytes (1×10^7) were incubated with receptor 2 in media (5 mL, 10 μM receptor, 1% DMSO) for 1 h at 37° C. in a 15 mL aerated centrifuge tube. Cells were washed with media (2×5 mL) to remove unincorporated receptor, resuspended in media (10 mL), transferred 2) to a tissue culture flask (25 cm^2), and maintained at 37° C. At fixed time points, an aliquot of this culture (1 mL) was removed from the flask and cells isolated by centrifugation. These cells were resuspended in media (89 μL) and a pre-equilibrated (23° C. for 1 h) complex of anti-DNP IgG (9.6 μg) and PrA488 (3 μg) in phosphate buffered saline (PBS, 11 μL, pH 7.4) was added for 5 min at 37° C. Treated cells were centrifuged (1300 g for 2 min), the supernatant was removed, cells were resuspended in media (0.5 mL), and cellular fluorescence was analyzed by flow cytometry. […]
To evaluate the temporal stability of receptor 2 on the cell surface, the half-life of this compound on Jurkat lymphocytes was quantified by addition of a soluble antibody. Cells were treated with this receptor for 1 hour (10 μM), unincorporated receptor was removed by washing cells with fresh media, and the abundance of 2 as a function of time was detected with a green fluorescent anti-DNP/PrA-AF488 complex.

[5] = read-out: affinity for vancomycin (Kd); cited from earlier work
[6] = 10 μM receptor for 1 hour, anti-DNP/PrA-AF488

**Q.** With CC(C)CCC[C@@H](C)[C@H]1CC[C@H]2[C@@H]3CC=C4C[C@@H](NC(=O)CCNC(=O)CCCCCNc5ccc([N+](=O)[O-])cc5[N+](=O)[O-])CC[C@]4(C)[C@H]3CC[C@]12C [receptor 5, N-{3-[(3β)-cholest-5-en-3-ylamino]-3-oxopropyl}-6-[(2,4-dinitrophenyl)amino]hexanamide] as the molecule, how does the “efficiency as mediator of ligand (IgG) uptake” value (“efficiency as mediator” for short) (Jurkat lymphocytes [1]) read?
**A.** Its value is “essentially abolished internalization of IgG”.

**Q.** What about the “reduction of IgG delivery relative to receptor 4 (secondary amine converted to secondary amide)” value (Jurkat lymphocytes [1]; at 10 μM) of the same molecule?
**A.** The value was “over 50 fold”.

**Q.** Which Kd [2] does the source give for O=C(CCCCCNc1ccc([N+](=O)[O-])cc1[N+](=O)[O-])NCCCNC(=S)Nc1ccc(-c2c3ccc(=O)cc-3oc3cc(O)ccc23)c(C(=O)O)c1 [compound 27] here?
**A.** The Kd was 23 ± 1.5 nM.

**Q.** For CC(C)CCC[C@@H](C)[C@H]1CC[C@H]2[C@@H]3CC=C4C[C@@H](NCCCNC(=O)CCCCCNc5ccc([N+](=O)[O-])cc5[N+](=O)[O-])CC[C@]4(C)[C@H]3CC[C@]12C [receptor 4, N-{3-[(3β)-cholest-5-en-3-ylamino]propyl}-6-[(2,4-dinitrophenyl)amino]hexanamide], which “efficiency as mediator” value (Jurkat lymphocytes [1]) is on record?
**A.** The value was “dramatically diminished the effectiveness”.

**Q.** Which results are given for CC(C)CCCC(C)[C@H]1CCC2C3CC=C4CC(NCCCNC(=O)CCNC(=O)c5ccc(-c6c7cc(F)c(=O)cc-7oc7cc(O)c(F)cc67)c(C(=O)O)c5)CC[C@]4(C)C3CC[C@@]21C (stereo partly drawn) [receptor 10]?
**A.** recycling half-life (Jurkat lymphocytes [3]; 1 μM, back exchange media 37° C., one-phase exponential decay): 2.8 ± 0.8 min; removal of receptor from the cell surface (Jurkat lymphocytes [3]; additional/repeated wash steps with back-exchange media): > 90%; loss of total cellular fluorescence (Jurkat lymphocytes [3]; four total wash steps with back-exchange media, 1 μM): 84%; loss of total cellular fluorescence (Jurkat lymphocytes [3]; single wash with ice-cold back-exchange media, 1 μM): 44%

**Q.** For CC(C)CCC[C@@H](C)[C@H]1CC[C@H]2[C@@H]3CC=C4C[C@@H](NCCCNC(=O)CCNC(=O)CCNC(=O)CCCCCNc5ccc([N+](=O)[O-])c6nonc56)CC[C@]4(C)[C@H]3CC[C@]12C [receptor 6, N-(3-{[3-({3-[(3β)-cholest-5-en-3-ylamino]propyl}amino)-3-oxopropyl]amino}-3-oxopropyl)-6-(7-nitrobenzofurazan-4-ylamino)hexanamide], which “intracellular red fluorescence lower in the absence of receptor” value (Jurkat lymphocytes [1]; 10 μM receptor, red fluorescent anti-DNP IgG/PrA) is on record?
**A.** Its value is 59 fold.

**Q.** Which results are given for CC(C)CCC[C@@H](C)[C@H]1CC[C@H]2[C@@H]3CC=C4C[C@@H](NCCCNC(=O)CCNC(=O)CCNC(=O)CCCCCNc5ccc([N+](=O)[O-])cc5[N+](=O)[O-])CC[C@]4(C)[C@H]3CC[C@]12C [receptor 2, N-(3-{[3-({3-[(3β)-cholest-5-en-3-ylamino]propyl}amino)-3-oxopropyl]amino}-3-oxopropyl)-6-[(2,4-dinitrophenyl)amino]hexanamide]?
**A.** cell surface half-life (Jurkat lymphocytes [4]): 20 h; enhancement of cellular uptake of anti-DNP IgG in magnitude compared with basal levels of endocytosis (Jurkat lymphocytes [1]; [6]): 208 fold; enhancement of cellular uptake of anti-DNP IgG in rate compared with basal levels of endocytosis (Jurkat lymphocytes [1]; [6]): 391 fold; efficiency as mediator of ligand (IgG) uptake (Jurkat lymphocytes [1]): by far the most efficient; rate of uptake (k) (Jurkat lymphocytes [1]; receptor at 1 μM, anti-DNP-IgG/PrA-AF488, 37° C.): 0.007327 ± 0.000006 min⁻¹; ligand internalization half-life (t1/2) (Jurkat lymphocytes [1]; receptor at 1 μM, calculated as (ln 2)/k): 1.58 h

**Q.** Which Kd [2] does the source give for “6-(7-nitrobenzofuran-4-ylamino)hexanoic acid [compound 28, reference compound]” here?
**A.** The Kd was 820 ± 144 nM.

**Q.** Which Kd [5] does the source give for D-Phe-D-Ala [D-Phe-D-Ala dipeptide] here?
**A.** Its Kd is ~7000 nM.

**Q.** With CC(C)CCC[C@@H](C)[C@H]1CC[C@H]2[C@@H]3CC=C4C[C@@H](NCCCNC(=O)CCNC(=O)CCCCCNc5ccc([N+](=O)[O-])cc5[N+](=O)[O-])CC[C@]4(C)[C@H]3CC[C@]12C [receptor 3, N-[3-({3-[(3β)-cholest-5-en-3-ylamino]propyl}amino)-3-oxopropyl]-6-[(2,4-dinitrophenyl)amino]hexanamide] as the molecule, how does the “efficiency as mediator” value (Jurkat lymphocytes [1]) read?
**A.** The value was “dramatically diminished the effectiveness”.
